From patent publication US8822445B2, “Crystalline form of carbapenem derivative or its hydrates and preparation methods and uses thereof” (priority 2010, dated 2014)
In brackets after ≈: the same amount, converted by molar mass. Entries after “also recorded” stand apart in the source; their conditions may differ.

Experiments:
[1] = Stability assay at a high temperature of 60° C. (water content, related substances, content); format: physicochemical; conditions: for Content %: HPLC; for Water content %: Karl Fischer method
Protocol: The crystalline form I: prepared by referring to the method of example 1 in CN201010178970.2. The batch number is 20100315-4;
The crystalline form II: prepared by example 2 of the Description. The batch number is 040805.
Test condition: sampled after being placed for 5 and 10 days at a high temperature of 60° C., and the results thus obtained were compared with those obtained at day 0 by measuring water content, related substances and contents thereof. The samples were sealed with plastic bags coated with aluminium foils during the assay.
Water content determination is performed according to the first method (the Karl Fischer method) in Chinese Pharmacopoeia, 2010 edition, Appendix VIII M.
Assay is performed by using the control as the external standard according to the high performance liquid chromatography in Chinese Pharmacopoeia, 2010 edition, Appendix VD.
Apparatus: high performance liquid chromatograph (Agilent 1200 series)
Chromatographic column: Agilent C18; filler: 5 μm octadecyl silane boned silica gel; inner diameter: 4.6 mm; length of the column: 150 mm.
Column temperature: 30° C.
Mobile phase: 0.02 M diammonium phosphate (pH=5.2 adjusted by phosphoric acid): acetonitrile=100:7
Determination of related substances is performed by area normalization method according to the high performance liquid chromatography in Chinese Pharmacopoeia, 2010 edition, Appendix VD.
Chromatographic column: Agilent C18; filler: 5 μm octadecyl silane boned silica gel; inner diameter: 4.6 mm; length of column: 150 mm.
Mobile phase: A: 0.02 M diammonium phosphate (pH=5.2 adjusted by phosphoric acid): acetonitrile=95:5.
B: 0.02 M diammonium phosphate (pH=5.2 adjusted by phosphoric acid): acetonitrile=30:70.
Gradient condition: see Table 1 below.

[2] = system: ESBLs negative Escherichia coli; experiment: Antibacterial activity assay, standard agar double dilution method, clinically isolated strains; format: cell-based; conditions: ESBLs negative Escherichia coli clinical isolates
Description: (§1) Test strains: the following clinically isolated strains were provided by public organizations.
(§2) Gram-positive bacteria: methicillin sensitive Staphylococcus aureus (MSSA), and penicillin sensitive Streptococcus pneumoniae;
(§3) Gram-negative bacteria: ESBLs negative Escherichia coli, ESBLs positive Escherichia coli, Haemophilus influenzae, and Moraxelle catarrhalis.
(§4) Test compound: the crystalline form II of compound A
(§5) Experimental method: standard agar double dilution method was adopted.

[3] = system: ESBLs positive Escherichia coli; experiment: as above; format: cell-based; conditions: ESBLs positive Escherichia coli clinical isolates
Description: as §1, §2, §3, §4, §5

Haemophilus influenzae = experiment: as above; format: cell-based; conditions: Haemophilus influenzae clinical isolates
Description: as §1, §2, §3, §4, §5

Moraxelle catarrhalis = experiment: as above; format: cell-based; conditions: Moraxelle catarrhalis clinical isolates
Description: as §1, §2, §3, §4, §5

[4] = system: methicillin sensitive Staphylococcus aureus (MSSA); experiment: as above; format: cell-based; conditions: MSSA clinical isolates
Description: as §1, §2, §3, §4, §5

[5] = system: penicillin sensitive Streptococcus pneumoniae; experiment: as above; format: cell-based; conditions: Penicillin sensitive Streptococcus pneumoniae clinical isolates
Description: as §1, §2, §3, §4, §5

[6] = system: Gram-positive and Gram-negative bacteria; experiment: Antibacterial activity assay, overall conclusion; format: cell-based; conditions: clinically isolated strains
Description: as §1, §2, §3, §4, §5

[7] = 5 days at 60° C. as compared with day 0
[8] = 10 days at 60° C. as compared with day 0

Row | Structure (SMILES) | Decrease in content % [1, 7] [%] | Decrease in water content % [1, 7] [%] | Increase open ring % [1, 7] [%] | Increase total % [1, 7] [%] | Related substance % Total % ([1]; 5 days at 60° C., sealed) [%] | Related substance % open ring % ([1]; 5 days at 60° C., sealed) [%] | Content % ([1]; 5 days at 60° C.) [%] | Water content % ([1]; 5 days at 60° C.) [%] | Decrease in content % [1, 8] [%] | Decrease in water content % [1, 8] [%] | Increase open ring % [1, 8] [%] | Increase total % [1, 8] [%] | Related substance % Total % ([1]; 10 days at 60° C., sealed) [%] | Related substance % open ring % ([1]; 10 days at 60° C., sealed) [%] | Content % ([1]; 10 days at 60° C.) [%] | Water content % ([1]; 10 days at 60° C.) [%] | Related substance % Total % ([1]; day 0) [%] | Related substance % open ring % ([1]; day 0) [%] | Content % ([1]; day 0) [%] | Water content % ([1]; day 0) [%] | also measured
1 | C[C@@H](O)[C@H]1C(=O)N2C(C(=O)O)=C(S[C@@H]3CN[C@H](C(=O)NCc4ccc(S(N)(=O)=O)cc4)C3)[C@H](C)[C@H]12 [crystalline form I, (4R,5S,6S)-6-((R)-1-hydroxyethyl)-4-methyl-7-oxo-3-(((3S,5S)-5-((4-sulfamoylbenzyl)carbamoyl)pyrrolidin-3-yl)thio)-1-azabicyclo[3.2.0]hept-2-ene-2-carboxylic acid] | 3.73 | 0.183 | 0.646 | 0.841 | 2.550 | 0.782 | 96.27 | 7.701 | 3.95 | 0.665 | 0.984 | 1.167 | 2.876 | 1.120 | 96.05 | 7.219 | 1.709 | 0.136 | 100 | 7.884 | 
2 | C[C@@H](O)[C@H]1C(=O)N2C(C(=O)O)=C(S[C@@H]3CN[C@H](C(=O)NCc4ccc(S(N)(=O)=O)cc4)C3)[C@H](C)[C@H]12 [crystalline form II, (4R,5S,6S)-6-((R)-1-hydroxyethyl)-4-methyl-7-oxo-3-(((3S,5S)-5-((4-sulfamoylbenzyl)carbamoyl)pyrrolidin-3-yl)thio)-1-azabicyclo[3.2.0]hept-2-ene-2-carboxylic acid] | 1.57 | 0.026 | 0.632 | 0.527 | 1.573 | 0.789 | 98.43 | 8.290 | 2.24 | 0.402 | 0.944 | 0.853 | 1.899 | 1.101 | 97.76 | 7.914 | 1.046 | 0.157 | 100 | 8.316 | stability as compared with the crystalline form I ([1]; 5 and 10 days at 60° C.): superior stability; also recorded: better than that of the crystalline form I; MIC90 [2]: 0.016 µg/mL (≈ 0.0305 µM); MICmode [2]: 0.016 mg/L; MIC90 [3]: 0.25 µg/mL (≈ 0.477 µM); MICmode [3]: 0.016 mg/L; MIC90 (Haemophilus influenzae): 0.125 µg/mL (≈ 0.238 µM); MICmode (Haemophilus influenzae): 0.062 mg/L; MIC90 (Moraxelle catarrhalis): 0.008 µg/mL (≈ 0.0152 µM); MICmode (Moraxelle catarrhalis): 0.004 mg/L; MICmode [4]: 0.062 mg/L; MIC90 ([4]; Staphylococcus aureus): 0.062 µg/mL (≈ 0.118 µM); MIC90 [5]: 0.031 µg/mL (≈ 0.0591 µM); MICmode [5]: 0.008 mg/L; antibacterial activity [6]: excellent antibacterial activity against both Gram-positive and Gram-negative bacteria
